Data on 3 compounds can be found in US6436956B1, “Useful form of anhydrous paroxetine hydrochloride” (Brantford Chemicals Inc., priority 1996, dated 2002).

Data set [1] in a line: bulk density and tapped density of the solid. The data set is classed as physicochemical.
Data set [2] is described as follows: hygroscopicity / moisture uptake on exposure to open air. The class given is physicochemical.
Data set [3] can be described thus: solid-form stability, conversion to the hemihydrate polymorph (DSC maximum of 143° C.). The class given is physicochemical.
The conditions of data set [4]: prior-art form, from literature; cited from earlier work.
The conditions of data set [5]: prior-art form, purported; cited from earlier work.
[6] abbreviates: Form IV as described in summary (material of Example 2).
Setting [7] is: material of Example 5 (methanol solution evaporated to foam, dried, pulverized).

The structures appear in SMILES notation. Structures can show the parent of a compound that is named as a salt. Where two headings read alike, the source gives them in different places. Bounds are passed on as bounds.

In the case of `Cl.Fc1ccc([C@@H]2CCNC[C@H]2COc2ccc3c(c2)OCO3)cc1` [Form IV, paroxetine hydrochloride (anhydrous)], in data set [1] (setting [6]), the bulk density entry is reported as “exceeding 0.6 g/mL” and the tapped density result is “exceeding 0.9 g/mL”. Moreover, in data set [1] (setting [7]), the bulk density entry is reported as “exceeding 0.43 g/mL” and the tapped density was over 0.58 g/mL. Moreover, the hygroscopic nature result in data set [2] is on record as “substantially non-hygroscopic”. For the same compound, in data set [2] (exposed to open air for three days, ca. 50% relative humidity), the moisture taken on was at most 1.5 % by weight. The stability result in data set [3] was “very stable”. The “rate of conversion to the hemihydrate polymorph” value in data set [3] (even in humid environments, DSC maximum of 143° C. as indicator) is “negligible rate”.

Turning to `Fc1ccc([C@@H]2CCNC[C@H]2COc2ccc3c(c2)OCO3)cc1` [anhydrous form, paroxetine hydrochloride], the hygroscopic nature result in data set [4] is recorded as “hygroscopic”.

As for `Fc1ccc([C@@H]2CCNC[C@H]2COc2ccc3c(c2)OCO3)cc1` [hemihydrate form, paroxetine hydrochloride hemihydrate], in data set [5], the stability entry is given as “purportedly stable”.
